Experimental data: patent publication US20160221948A1, “NITROGEN-CONTAINING SATURATED HETEROCYCLIC COMPOUND” (SUMITOMO CHEMICAL COMPANY, LIMITED, priority 2013, published 2016)

Biological target: human SSTR4 (Homo sapiens, UniProt P31391)
Assay: Evaluation of agonist activities using human SSTR4-stably expressing cells (aequorin luminescence)
Format: cell-based
Set-up: expressed in transfected cells; host or cells: HEK293
Settings: Tables 25 to 27
Description: Evaluation of Agonist Activities Using Cells that stably expressing human-derived SSTR4 (human SSTR4-stably expressing cells)
(1) Human SSTR4-Stably Expressing Cells
Human SSTR4-stably expressing cells were prepared, and cultured. Specifically, HEK293 cells, human kidney-derived cells, were used as host cells. By introducing pcDNA3.1 (cat. No. V79020, invitrogen, Carlsbad, Calif., USA) to which human SSTR gene was inserted into HEK293 cells, human SSTR4-stably expressing cell line was obtained. For selection, G418 (cat. No. 16513-84, Nacalai tesque, Japan) was used.
As the culture medium, D-MEM medium (cat. No. 11995, GIBCO, USA), containing 10% FBS and 200 μg/mL G418, was used, the culture was performed in a 225 cm^2 flask (cat. No. 11-006-010, Iwaki, Japan).
At about 80% confluence, the cells were harvested by treating with 20-fold diluted 0.25% Trypsin-EDTA (cat. No. 35554-64, Nacalai, tesque, Japan). The harvested cells were prepared at a reaction medium composed of Hanks Buffer (cat. No. 14065-056, invitrogen, Carlsbad, Calif., USA)/20 mM Hepes (cat. No. 15630-080, invitrogen, Carlsbad, Calif., USA), and 0.1% BSA (cat. No. A7906, Sigma Aldrich, USA) to 70000 cells/mL. Gα16 and apoaequorin were transiently introduced to the harvested cells, and the cells were seeded to a 384 well plate (cat. No. 781090, Greiner, Germany) at about 2000 cells/30 μL/well. On the next day of cell seeding, Coelenterazine H (cat. No. S2011, Promega, USA) was added to each well (10 μL/well) to make a final concentration of 0.5 μmol/L, and the plate was centrifuged. Then, the plate was left at room temperature for 4 hours in shaded state.
(2) Preparation of Test Compounds
DMSO solution of each test compound having 1000-fold larger concentration than the final concentration was prepared. The DMSO solutions were made to have 10-fold concentration than the final concentration with Hanks/20 mmol/L Hepes/0.1% BSA.
(3) Evaluation of Agonist Activity
For detection of luminescence signal due to SSTR4-stimulation, FDSS7000 (manufactured by Hamamatsu Photonics K.K.) was used. To plates having cells and the luminescence substrate, solutions of test compounds were added, then each luminescence signal was measured for 90 seconds, and each relative luminescence unit (RLU) was calculated. Based on luminescence signal from the wells to which a 1 μmol/L somatostatin solution was added taken as 100%, agonist activity of each test compound was evaluated.

human SSTR4, sequence (P31391 whole entry): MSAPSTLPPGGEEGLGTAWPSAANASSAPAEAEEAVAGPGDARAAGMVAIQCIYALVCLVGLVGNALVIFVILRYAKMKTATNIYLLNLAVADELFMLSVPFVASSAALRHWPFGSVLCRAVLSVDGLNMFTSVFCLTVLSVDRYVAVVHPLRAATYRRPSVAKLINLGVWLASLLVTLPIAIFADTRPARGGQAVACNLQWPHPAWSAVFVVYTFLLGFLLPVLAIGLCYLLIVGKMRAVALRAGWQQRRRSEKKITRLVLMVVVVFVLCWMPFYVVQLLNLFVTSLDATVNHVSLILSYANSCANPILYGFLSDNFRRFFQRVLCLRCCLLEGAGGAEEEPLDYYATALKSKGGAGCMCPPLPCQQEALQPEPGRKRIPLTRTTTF

How did the “SSTR4 agonist activity compared with other compounds” value turn out when `COc1cc(Cl)c(Cl)cc1C(C)(C)NC(=O)[C@H]1CCCN(C)C1` [Example 52] was run?
The value was “stronger SSTR4 agonist activity”.

`CCN1CCC[C@H](C(=O)NC(C)(C)c2ccccc2Cl)C1` [Example 110, (3S)—N-[2-(2-chlorophenyl)propane-2-yl]-1-ethylpiperidine-3-carboxyamide] was tested. Which “SSTR4 agonist activity compared with other compounds” value did it give?
Its value is “stronger SSTR4 agonist activity”.

How did the “SSTR4 agonist activity compared with other compounds” value turn out when `CC(C)N1CCC[C@H](C(=O)NC(C)(C)c2cccc3ccccc23)C1` [Example 115, (3S)—N-[2-(naphthalene-1-yl)propane-2-yl]-1-(propane-2-yl)pyperidine-3-carboxamide] was run?
Its value is “stronger SSTR4 agonist activity”.

How did the “SSTR4 agonist activity compared with other compounds” value turn out when `CCN1CCCC(C(=O)NC(C)(C)c2cccc3ccccc23)C1` (stereo not shown) [Example 116] was run?
The value was “stronger SSTR4 agonist activity”.

Same assay, conditions: luminescence signal; 1 μmol/L somatostatin taken as 100%

For `Cc1ccc(C(C)(C)NC(=O)[C@H]2CCCN(C)C2)cc1Cl` [Example 47, (3S)—N-[2-(3-chloro-4-methylphenyl)propane-2-yl]-1-methylpiperidine-3-carboxamide], which EC50 is on record?
The EC50 was 8 nM.

For `Cc1cc(C(C)(C)NC(=O)[C@H]2CCCN(C)C2)ccc1Cl` [Example 48], which EC50 is on record?
Its EC50 is 10 nM.

With `Cc1ccc(C)c(C(C)(C)NC(=O)[C@H]2CCCN(C)C2)c1` [Example 49] as the compound, how does the EC50 read?
Its EC50 is 12 nM.

Which EC50 does the source give for `COc1ccc(Cl)cc1C(C)(C)NC(=O)[C@H]1CCCN(C)C1` [Example 51, (3S)—N-[2-(5-chloro-2-methoxylphenyl)propane-2-yl]-1-methylpiperidine-3-carboxamide] here?
Its EC50 is 5 nM.

How did the EC50 turn out when `COc1cc(Cl)c(Cl)cc1C(C)(C)NC(=O)[C@H]1CCCN(C)C1` [Example 52] was run?
The EC50 was 1.2 nM.

For `COc1ccccc1C(C)(C)NC(=O)[C@H]1CCCN(C)C1` [Example 53], which EC50 is on record?
Its EC50 is 8.8 nM.

With `COc1ccc(F)cc1C(C)(C)NC(=O)[C@H]1CCCN(C)C1` [Example 54, (3S)—N-[2-(5-fluoro-2-methoxylphenyl)propane-2-yl]-1-methylpiperidine-3-carboxamide] as the compound, how does the EC50 read?
Its EC50 is 8.2 nM.

`CN1CCC[C@H](C(=O)NC(C)(C)c2ccccn2)C1` [Example 56] was tested. Which EC50 did it give?
The EC50 was greater than 100 nM.

How did the EC50 turn out when `CN1CCC[C@H](C(=O)NC(C)(C)c2cccnc2)C1` [Example 57] was run?
The EC50 was greater than 100 nM.

Which EC50 does the source give for `CN1CCC[C@H](C(=O)NC(C)(C)c2ccncc2)C1` [Example 58] here?
Its EC50 is greater than 100 nM.

Which EC50 does the source give for `CN1CCC[C@H](C(=O)NC(C)(C)c2ccsc2)C1` [Example 59] here?
Its EC50 is greater than 100 nM.

Which EC50 does the source give for `CN1CCC[C@H](C(=O)NC(C)(C)c2ccccc2OC(F)(F)F)C1` [Example 60, (3S)—N-{2-[2-(trifluoromethoxy)phenyl]propane-2-yl}-1-methylpiperidine-3-carboxamide] here?
Its EC50 is 4.8 nM.

For `CN1CCC[C@H](C(=O)NC(C)(C)c2cccc(S(C)(=O)=O)c2)C1` [Example 62], which EC50 is on record?
Its EC50 is greater than 100 nM.

With `CN1CCC[C@H](C(=O)NC(C)(C)c2ccc(S(C)(=O)=O)cc2)C1` [Example 63] as the compound, how does the EC50 read?
The EC50 was greater than 100 nM.

With `CN1CCC[C@H](C(=O)NC(C)(C)c2ccccc2S(C)(=O)=O)C1` [Example 64] as the compound, how does the EC50 read?
Its EC50 is greater than 100 nM.

Which EC50 does the source give for `CSc1ccccc1C(C)(C)NC(=O)[C@H]1CCCN(C)C1` [Example 65] here?
Its EC50 is 6.2 nM.

Which EC50 does the source give for `CN1CCC[C@H](C(=O)NC(C)(C)c2ccccc2OC(F)F)C1` [Example 66] here?
Its EC50 is 20.5 nM.

How did the EC50 turn out when `CN1CCC[C@H](C(=O)NC(C)(C)c2ccccc2Br)C1` [Example 67, (3S)—N-[2-(2-bromophenyl)propane-2-yl]-1-methylpiperidine-3-carboxamide] was run?
The EC50 was 1.5 nM.

With `CN1CCC[C@H](C(=O)NC(C)(C)c2ccc(Br)cc2)C1` [Example 68] as the compound, how does the EC50 read?
Its EC50 is greater than 100 nM.

With `CN1CCC[C@H](C(=O)NC(C)(C)c2ccc(F)cc2)C1` [Example 69] as the compound, how does the EC50 read?
Its EC50 is greater than 100 nM.

With `COc1cccc(C(C)(C)NC(=O)[C@H]2CCCN(C)C2)c1` [Example 70] as the compound, how does the EC50 read?
The EC50 was greater than 100 nM.

For `CN1CCC[C@H](C(=O)NC(C)(C)c2cccc(F)c2Cl)C1` [Example 71, (3S)—N-[2-(2-chloro-3-fluorophenyl)propane-2-yl]-1-methylpiperidine-3-carboxamide], which EC50 is on record?
Its EC50 is 3.3 nM.

For `CN1CCC[C@H](C(=O)NC(C)(C)c2ccc(F)cc2Cl)C1` [Example 72, (3S)—N-[2-(2-chloro-4-fluorohenyl)propane-2-yl]-1-methylpiperidine-3-carboxamide], which EC50 is on record?
Its EC50 is 2.8 nM.

With `CN1CCC[C@H](C(=O)NC(C)(C)c2cc(F)ccc2Cl)C1` [Example 73, (3S)—N-[2-(2-chloro-5-fluorohenyl)propane-2-yl]-1-methylpiperidine-3-carboxamide] as the compound, how does the EC50 read?
The EC50 was 7.1 nM.

For `CN1CCC[C@H](C(=O)NC(C)(C)c2c(F)cccc2Cl)C1` [Example 74], which EC50 is on record?
The EC50 was 20.9 nM.

With `CN1CCC[C@H](C(=O)NC(C)(C)c2cccc(F)c2)C1` [Example 75] as the compound, how does the EC50 read?
Its EC50 is 73.3 nM.

Which EC50 does the source give for `CCc1ccccc1C(C)(C)NC(=O)[C@H]1CCCN(C)C1` [Example 76, (3S)—N-[2-(2-ethylphenyl)propane-2-yl]-1-methylpiperidine-3-carboxamide] here?
Its EC50 is 1.9 nM.

For `CN1CCC(C(=O)NC(C)(C)c2cccc3ccccc23)C1` (stereo not shown) [Example 77], which EC50 is on record?
The EC50 was 3 nM.

For `CN1CCC(C(=O)NC(C)(C)c2ccccc2)C1` (stereo not shown) [Example 78], which EC50 is on record?
Its EC50 is greater than 100 nM.

Which EC50 does the source give for `CN1CC[C@H](C(=O)NC(C)(C)c2ccccc2Cl)C1` [Example 79] here?
The EC50 was 43.5 nM.

`CN1CC[C@@H](C(=O)NC(C)(C)c2ccccc2Cl)C1` [Example 80] was tested. Which EC50 did it give?
The EC50 was greater than 100 nM.

For `CN1CC(O)CC(C(=O)NC(C)(C)c2cccc3ccccc23)C1` (stereo not shown) [Example 83], which EC50 is on record?
Its EC50 is 7.4 nM.

For `CC1CC(C(=O)NC(C)(C)c2cccc3ccccc23)CN(C)C1` (stereo not shown) [Example 86], which EC50 is on record?
Its EC50 is 16.2 nM.

Which EC50 does the source give for `COC1CC(C(=O)NC(C)(C)c2cccc3ccccc23)CN(C)C1` (stereo not shown) [Example 91] here?
Its EC50 is 2.6 nM.

`CN1CC(F)CC(C(=O)NC(C)(C)c2cccc3ccccc23)C1` (stereo not shown) [Example 92] was tested. Which EC50 did it give?
The EC50 was 3.2 nM.

How did the EC50 turn out when `CN1CC(C(=O)NC(C)(C)c2cccc3ccccc23)CC(C)(C)C1` (stereo not shown) [Example 93] was run?
The EC50 was 6 nM.

With `CN1CC(C(=O)NC(C)(C)c2cccc3ccccc23)CC(F)(F)C1` (stereo not shown) [Example 94] as the compound, how does the EC50 read?
Its EC50 is 28.8 nM.

Which EC50 does the source give for `CN1CC(C(=O)NC(C)(C)c2cccc(Cl)c2Cl)CCC1(C)C` (stereo not shown) [Example 97] here?
The EC50 was 85 nM.

Which EC50 does the source give for `CN1CCCC(C(=O)NC(C)(C)c2cccc(Cl)c2Cl)C1c1ccccc1` (stereo not shown) [Example 98] here?
Its EC50 is greater than 100 nM.

With `CC1CC(C(=O)NC(C)(C)c2cccc(Cl)c2Cl)CN(C)C1` (stereo not shown) [Example 100] as the compound, how does the EC50 read?
The EC50 was 27.9 nM.

For `CN1CC(C(=O)NC(C)(C)c2cccc(Cl)c2Cl)CC(F)(F)C1` (stereo not shown) [Example 101], which EC50 is on record?
The EC50 was 33.6 nM.

`CCC1CCC(C(=O)NC(C)(C)c2cccc(Cl)c2Cl)CN1C` (stereo not shown) [Example 102] was tested. Which EC50 did it give?
The EC50 was 61.8 nM.

Which EC50 does the source give for `COC1CC(C(=O)NC(C)(C)c2cccc(Cl)c2Cl)CN(C)C1` (stereo not shown) [Example 103] here?
The EC50 was 31.4 nM.

`CCN1CCC[C@H](C(=O)NC(C)(C)c2ccccc2Cl)C1` [Example 110, (3S)—N-[2-(2-chlorophenyl)propane-2-yl]-1-ethylpiperidine-3-carboxyamide] was tested. Which EC50 did it give?
The EC50 was 2.8 nM.

For `CCN1CCCC(C(=O)NC(C)(C)c2cccc3ccccc23)C1` (stereo not shown) [Example 111], which EC50 is on record?
The EC50 was 6.9 nM.

With `CC(C)(NC(=O)C1CCCN(CCF)C1)c1cccc2ccccc12` (stereo not shown) [Example 112] as the compound, how does the EC50 read?
The EC50 was greater than 100 nM.

For `CC(C)(NC(=O)[C@H]1CCCN(CCF)C1)c1cccc2ccccc12` [Example 113], which EC50 is on record?
The EC50 was 3.1 nM.

Which EC50 does the source give for `CCCN1CCC[C@H](C(=O)NC(C)(C)c2cccc3ccccc23)C1` [Example 114] here?
Its EC50 is 6.2 nM.

Which EC50 does the source give for `CC(C)N1CCC[C@H](C(=O)NC(C)(C)c2cccc3ccccc23)C1` [Example 115, (3S)—N-[2-(naphthalene-1-yl)propane-2-yl]-1-(propane-2-yl)pyperidine-3-carboxamide] here?
Its EC50 is 1.9 nM.

With `CCN1CCCC(C(=O)NC(C)(C)c2cccc3ccccc23)C1` (stereo not shown) [Example 116] as the compound, how does the EC50 read?
Its EC50 is 1.7 nM.

`CCCN1CCCC(C(=O)NC(C)(C)c2cccc3ccccc23)C1` (stereo not shown) [Example 117] was tested. Which EC50 did it give?
Its EC50 is 6.9 nM.

How did the EC50 turn out when `CCCCN1CCCC(C(=O)NC(C)(C)c2cccc3ccccc23)C1` (stereo not shown) [Example 118] was run?
Its EC50 is 55.2 nM.

With `CC(C)N1CCCC(C(=O)NC(C)(C)c2cccc3ccccc23)C1` (stereo not shown) [Example 119] as the compound, how does the EC50 read?
Its EC50 is 3.5 nM.

Which EC50 does the source give for `CCC(C)N1CCCC(C(=O)NC(C)(C)c2cccc3ccccc23)C1` (stereo not shown) [Example 120] here?
Its EC50 is 22.7 nM.
